{"source": "patent US7390892B2", "about": "“Nucleic acids encoding novel cyclic GMP dependent protein kinases from Elmeria maxima” (Merial Limited, priority 2001, dated 2008)", "key": {"[1]": {"tested_on": "Mixed-species field isolate of Eimeria DP-924 (E. maxima, E. acervulina, E. mitis)", "assay": "Chicken battery experiment, mixed-species Eimeria field isolate DP-924", "type": "in vivo", "details": "chickens, field isolate DP-924, 125 ppm in feed", "excerpt": "(§1) Chicken battery experiments have also been conducted to evaluate L-167645 efficacy against mixed-species field isolates of Eimeria. The Eimeria cultures were obtained from grower farms in major broiler-producing states. Two of these field isolates, DP-924 and DP-968, contained E. maxima parasites. Each treatment group consisted of one pen of three one-week old White Leghorn chickens. Animals were placed on medicated feed at doses of L-167645 ranging from 25 to 150 ppm for the duration of the study. After 48 hrs, birds were infected by oral gavage with a total of 1×10^5 sporulated oocysts."}, "[2]": {"target": "T1, Native P. falciparum PKG (Plasmodium falciparum, UniProt Q8I719)", "T1 construct": "endogenous in cells; host or cells: P. falciparum NF54, schizont/trophozoite-enriched cultures in human erythrocytes; MonoQ then 8-AET-cGMP-agarose", "assay": "PKG catalytic assay, native P. falciparum PKG", "type": "biochemical", "method": "The NF54 strain of P. falciparum was grown in 5% human O+ red blood cells in RPMI 1640 media supplemented with 10% heat-inactivated human serum and 3% hypoxanthine using modifications of standard conditions (Trager and Jensen, 1976, Science 193, 673-675). Media was changed daily and parasites were diluted into fresh erythrocytes to a parasitemia of 0.2-0.5% every 3 to 4 days; final parasitemia ranged from 4 to 10%. Synchronized cultures (Lambros and Vanderberg, 1979, J. Parasitology 65, 418-420) enriched for schizont and trophozoite stages were prepared in a continuous Percoll gradient (Rivadeneira et al, 1983 J. Protozoology 30, 367-370). […]\nA linear NaCl gradient was applied (0-500 mM in 3ml @ 100 ul/min) and 100 ul fractions were collected and assayed for PKG enzyme activity. […] The purification of P. falciparum PKG was monitored by Western blot analysis using a commercially available antipeptide antisera directed at a conserved PKG peptide (Calbiochem Cat. No. 539729). • (v) PKG Catalytic Assay\n(§2) Kinase activity was detected using a peptide substrate and [γ-^33P]-ATP. […] In both cases filters were washed with 75 mM phosphoric acid, dried and ^33P-labelled phosphopeptide was detected by liquid scintillation counting."}, "[3]": {"target": "Native E. maxima PKG (Eimeria maxima, UniProt Q8MMZ5)", "assay": "PKG catalytic assay, native E. maxima PKG", "type": "biochemical", "method": "E. maxima unsporulated oocysts were harvested from the ceca of chickens seven days after infection with sporulated oocysts and purified using standard methods (Schmatz et al, 1986, J. Protozoology 33, 109-114). Soluble extracts were prepared by vortexing 2×10^9 E. maxima unsporulated oocysts with an equal volume of buffer (10 mM HEPES pH 7.4, 1 mM sodium orthovanadate, 20% glycerol, 0.1 mg/ml Bacitracin and 0.5% Sigma protease inhibitor cocktail P8340), and an equal volume of […] glass beads for 20 minutes. The resulting homogenate was centrifuged (100,000×g, 1 hour) and the supernatant (S100) collected. Native E. maxima PKG activity in the S100 fraction was affinity purified using an 8-AET-cGMP-agarose matrix as described below. • (iv) Isolation and Characterization of Native PKG from P. falciparum\nKinase activity was detected using a peptide substrate and [γ-^33P]-ATP. An aliquot containing the respective enzyme preparations was combined with a reaction mixture (10 μl) whose composition is as follows: 25 mM HEPES pH 7.4, 10 mM MgCl2, 20 mM beta-glycerophosphate, 5 mM beta-mercaptoethanol, 10 μM cGMP, 1 mg/ml BSA, 400 μM Kemptide, 2 μM [γ-^33P]ATP (0.1 mCi/ml). […] In both cases filters were washed with 75 mM phosphoric acid, dried and ^33P-labelled phosphopeptide was detected by liquid scintillation counting."}, "[4]": {"tested_on": "Mixed-species field isolate of Eimeria DP-968 (E. maxima, E. acervulina, E. mitis, E. tenella)", "assay": "Chicken battery experiment, mixed-species Eimeria field isolate DP-968", "type": "in vivo", "details": "chickens, field isolate DP-968, 125 ppm in feed", "excerpt": "as §1"}, "[5]": {"tested_on": "C. parvum", "assay": "In vitro tissue culture based assay with C. parvum", "type": "cell-based"}, "[6]": {"target": "Recombinant E. maxima PKG (Eimeria maxima, UniProt Q8MMZ5)", "assay": "PKG catalytic assay, recombinant E. maxima PKG", "type": "biochemical", "excerpt": "T. gondii was selected as a host cell for recombinant expression of functional E. maxima PKG enzyme. An Eimeria maxima cDNA encoding the PKG open reading frame (ORF) was modified prior to subcloning for expression by appending either an N-terminal or C-terminal FLAG epitope for detection purposes via PCR amplification. DNA fragments encoding FLAG-epitope tagged PKGs were then placed in a T. gondii expression vector under the control of a Toxoplasma α-tubulin promoter (Soldati and Boothroyd, 1993, Science 260, 349-352). The vector encodes bacterial chloramphenicol acetyltransferase (CAT) as a selectable marker for transfection.\nT. gondii tachyzoites of the RH strain were maintained by serial passage in primary human foreskin fibroblast cultures (HFF). Host cells were grown in Dulbecco's modified Eagle's medium with 10% heat-inactivated newborn bovine serum. […]\nRecombinant FLAG-tagged E. maxima PKG was purified from T. gondii lysates by FLAG immuno-affinity chromatography. […] Protein was measured with a micro BCA reagent (Pierce), using a TCA/sodium deoxycholate step (Brown et al, 1989, Analytical Biochemistry 180, 136-139) to remove residual FLAG peptide prior to quantitation. […]\nas §2"}, "[7]": {"tested_on": "E. maxima", "assay": "Efficacy against E. maxima in infected chickens (oocyst counts)", "type": "in vivo", "details": "125 ppm in the feed, terminated on day 8", "method": "Several studies have been conducted to evaluate the efficacy of […] against E. maxima in infected chickens. For efficacy studies against E. maxima alone, L-167645 was administered in the feed at doses from 25 to 150 ppm starting on day one. Birds were infected with 3.5×10^3 E. maxima sporalated oocysts on day 2 and medicated feed was continuously available at the respective doses for the duration of the study. The experiment was terminated on day 8, intestines were removed and homogenized and compound efficacy was estimated by performing oocyst counts."}, "[8]": {"tested_on": "P. berghei", "assay": "Parasitemia in mice infected with P. berghei", "type": "in vivo", "details": "Balb C mice, individual mice 1-5", "method": "Balb C mice were infected intra-peritoneally with 1×10^6 P. berghei parasites in red blood cells. Two hours later twice daily intra-peritoneal treatment began with L-167645 in 10% DMSO. In the experiments described within, five animals were dosed with 75 milligrams compound per kilogram body weight (mpk) and received two treatments for one day. Five additional mice were dosed at 50 mpk and received two treatments daily for five days. Five control mice were dosed with an equivalent volume of 10% DMSO twice daily for 5 days. Parasite burden was measured by counting infected red blood cells as a function of total red blood cells (% parasitemia) and was performed periodically; -parasitemia on day 8 post-infection are tabulated below."}, "[9]": {"tested_on": "Plasmodium falciparum", "assay": "PFAIV assay: tritiated hypoxanthine incorporation into parasitized red blood cells", "type": "cell-based", "details": "Erythrocyte, in vitro cell culture, 48 hours, [3H]-hypoxanthine incorporation, read-out: concentration of compound required to inhibit growth by 50% (IC50)", "method": "The PFAIV assay is an in vitro assay designed to identify potential inhibitors of P. falciparum by measuring the incorporation of tritiated hypoxanthine into parasitized red blood cells.\nThe following method is an adaptation of the method described by Desjardins, R. E. et al, 1979. AAC Vol 16, p710-718:\n1. Sixty microliters of a solution of RPMI 1640 media plus gentamycin (1:100 dilution) containing the desired concentration of test compound is added to the wells of a 96-well plate. (For titrations, 120 microliters is added to the top well and the compounds are serially diluted into 60 microliters of media.)\n2. Fifty three microliters of parasitized red blood cells is added to the wells. The parasitemia of the culture is approximately 2-3% and the hematocrit is 5%. The red blood cells are diluted in RPMI 1640 media containing 20% human A+ serum and gentamycin.\n3. Twelve microliters of RPMI1640 media containing 200 uCi [^3H] - hypoxanthine is added to each well.\n4. The plates are incubated at 37° C. for 48 hours under […] (candle jar). After incubation, the plates are frozen overnight (for safety), then thawed and harvested using a manual 96-well harvester onto UNIFILTER GF/B plates.\n5. The plates are counted on a Wallac instrument and % inhibition of parasite growth is determined as compared to control wells containing no compound."}}, "note": "pIC50: −log10 of the molar value. Several values for one entry are separate records, joined by “and”; a condition that tells them apart may be missing. Equal values may be shown once."}
{"smiles": "CN1CCC(c2cc(-c3ccncc3)c(-c3ccc(F)cc3)[nH]2)CC1", "note": "[L-167645, 4-[2-(4-fluorophenyl)-5-(1-methylpiperidine4-yl)-1H-pyrrol-3-yl]pyridine]", "values": [{"measurement": "% Reduction in Oocyst Counts", "setting": "[1]", "value": 97, "unit": "%"}, {"measurement": "Relative % Weight Gain", "setting": "[1]", "value": 108, "unit": "%"}, {"measurement": "pIC50", "setting": "[2]", "value": 8.07}, {"measurement": "pIC50", "setting": "[3]", "value": 8.34}, {"measurement": "% Reduction in Oocyst Counts", "setting": "[4]", "value": 86, "unit": "%"}, {"measurement": "Relative % Weight Gain", "setting": "[4]", "value": 94, "unit": "%"}, {"measurement": "inhibition of parasitic growth", "setting": "[5]", "value": "effective in inhibiting parasitic growth"}, {"measurement": "pIC50", "setting": "[6]", "value": 8.38}, {"measurement": "reduction in oocyst counts", "setting": "[7]", "value": "greater than 99%"}, {"measurement": "% parasitemia 8 days post-infection", "setting": "[8]; 50 mpk intra-peritoneal, twice daily for five days, 50 mg/kg", "value": "0% (2×) and 1% (2×) and 3%"}, {"measurement": "% parasitemia 8 days post-infection", "setting": "[8]; 75 mpk intra-peritoneal, two treatments for one day, 75 mg/kg", "value": "3% and 4% and 1% (2×) and Dead"}, {"measurement": "IC50", "setting": "[9]", "value": 2.2, "unit": "µg/mL"}]}
